These molecules were tested on single-round infectious reporter virus with HIV-1 LAI envelope (assay: Single-round infectious HIV-1 LAI luciferase reporter virus infection of MT2 cells). Conditions: Human immunodeficiency virus 1, MT2, 72 h.
Assay type: cell-based
Source text: • Virus production—Human embryonic Kidney cell line, 293T (HEK 293T), was propagated in Dulbecco's Modified Eagle Medium (Invitrogen, Carlsbad, Calif.) containing 10% fetal Bovine serum (FBS, Sigma, St. Louis, Mo.). The human T-cell leukemia cell MT2 (AIDS Research and Reference Reagent Program, Cat. 237) was propagated in RPMI 1640 (Invitrogen, Carlsbad, Calif.) containing 10% fetal bovine serum (FBS, Hyclone, Logan, Utah) • Virus infection—Single-round infectious reporter virus was produced by co-transfecting HEK 293T cells with plasmide expressing the HIV-1 LAI envelope along with a plasmid containing an HIV-1 LAI proviral cDNA with the envelope gene replaced by a firefly luciferase reporter gene (Chen et al, Ref 41). Transfections were performed using lipofectAMINE PLUS reagent as described by the manufacturer (Invitrogen, Carlsbad, Calif.).
• 1. MT2 cells were plated in black, 384 well plates at a cell density of 5×10^3 cells per well in 25 μl RPMI 1640 containing 10% FBS. • 2. Compound (diluted in dimethylsulfoxide and growth medium) was added to cells at 12.5 μl/well, so that the final assay concentration would be ≦50 nM. • 3. 12.5 μl of single-round infectious reporter virus in Dulbecco's Modified Eagle Medium was added to the plated cells and compound at an approximate multiplicity of infection (MOI) of 0.01, resulting in a final volume of 50 μl per well. • 4. Virus-infected cells were incubated at 37 degrees Celsius, in a CO2 incubator, and harvested 72 h after infection. • 5. Viral infection was monitored by measuring luciferase expression in the infected cells using a luciferase reporter gene assay kit (Steady-Glo, Promega, Madison, Wis.) as described by the manufacturer. Luciferase activity was then quantified by measuring luminescence using an EnVision Multilabel Plate Readers (PerkinElmer, Waltham, Mass.). • 6. The percent inhibition for each compound was calculated by quantifying the level of luciferase expression in cells infected in the presence of each compound as a percentage of that observed for cells infected in the absence of compound and subtracting such a determined value from 100. • 7. An EC50 provides a method for comparing the antiviral potency of the compounds of this disclosure. The effective concentration for fifty percent inhibition (EC50) was calculated with the Microsoft Excel Xlfit curve fitting software. For each compound, curves were generated from percent inhibition calculated at 10 different concentrations by using a four paramenter logistic model (model 205). Table 1 is the key for the data in Table 2.

SMILES | EC50
CCC(=O)N1CCN(C(=O)C(=O)c2c[nH]c3c(-n4cnc(C)n4)ncc(OC)c23)CC1 [Compound 2050] | 10.4 nM

Same assay, conditions: Human immunodeficiency virus 1, MT2, 72 h, read-out: EC50 Group from Table 1

SMILES | EC50
COCCOCC(=O)N1CCN(C(=O)C(=O)c2c[nH]c3c(-n4ccnn4)ncc(F)c23)CC1 [Compound 2047] | > 500 nM
COCC(=O)N1CCN(C(=O)C(=O)c2c[nH]c3c(-n4cnc(C)n4)ncc(OC)c23)CC1 [Compound 2048] | < 500 nM
COc1cnc(-n2cnc(C)n2)c2[nH]cc(C(=O)C(=O)N3CCN(C(=O)CN(C)C)CC3)c12 [Compound 2049] | > 500 nM
CCC(=O)N1CCN(C(=O)C(=O)c2c[nH]c3c(-n4cnc(C)n4)ncc(OC)c23)CC1 [Compound 2050] | < 500 nM
COCCOCC(=O)N1CCN(C(=O)C(=O)c2c[nH]c3c(-n4cnc(C)n4)ncc(OC)c23)CC1 [Compound 2051] | > 500 nM
